Test results published in patent US9951014B2, “Mammalian and bacterial nitric oxide synthase inhibitors” (Northwestern University, priority 2014, dated 2018).
Like-named read-outs stand apart in the source and are kept apart here.

Legend:
[1] = target: rat nNOS (Rattus norvegicus (Rat), UniProt P29476); assay: Oxyhemoglobin NO capture assay with purified NOS; assay type: biochemical
Protocol: (§1) The oxyhemoglobin NO assays were performed with purified NOSs using a Biotek Gen5™ microplate reader as previously reported. […] For iNOS, calmodulin and CaCl2 were omitted because iNOS is calcium independent. […] The calculated standard deviations of the assays were less than 10% with all NOSs. […] The selectivity of antagonism of nNOS was determined by calculating the ratios of the Ki values with iNOS or eNOS to those with rat nNOS.

[2] = target: human nNOS (Homo sapiens (Human), UniProt P29475); assay: Oxyhemoglobin NO capture assay with purified NOS; assay type: biochemical; settings: Table 9; read-out: Ki H nNOS
Protocol: as §1

[3] = target: murine iNOS (Mus musculus (Mouse), UniProt P29477); assay: Oxyhemoglobin NO capture assay with purified NOS; assay type: biochemical; settings: for i/n selectivity: ratio Ki iNOS / Ki rat nNOS
Protocol: as §1

[4] = target: bovine eNOS (Bos taurus (Bovine), UniProt P29473); assay: Oxyhemoglobin NO capture assay with purified NOS; assay type: biochemical; settings: for e/n selectivity: ratio Ki eNOS / Ki rat nNOS
Protocol: as §1

[5] = target: T1, bsNOS (Bacillus subtilis (strain 168), UniProt O34453); assay: Imidazole displacement, spectral binding constant KS
[6] = tested on: S. aureus UAMS1182 (MRSA); assay: Effect of H2O2 and NOS inhibitors on S. aureus viability (CFU); assay type: cell-based, Staphylococcus aureus; settings: for effect of co-treatment with H2O2 on killing of S. aureus: 200 μM inhibitor + 5 mM H2O2; for S. aureus survival, inhibitor alone: 200 μM inhibitor, WT and Δnos strains
[7] = target: T1, bsNOS; settings: cited from earlier work
[8] = target: eNOS (Bos taurus (Bovine), UniProt P29473); settings: literature data (footnotes a, c); read-out: KS eNOS; cited from earlier work
[9] = target: nNOS (Rattus norvegicus (Rat), UniProt P29476); settings: literature data (footnote b); read-out: KS nNOS; cited from earlier work
[10] = tested on: B. subtilis; assay: Effect of oxidative/antimicrobial stress and NOS inhibitors on B. subtilis survival (CFU); assay type: cell-based, Bacillus subtilis
[11] = WT − KS, wild-type bsNOS, Table 8
[12] = wt B. subtilis, L-NNA, 1 at 500 μM, 2 at 250 μM

T1 sequence (O34453 whole entry): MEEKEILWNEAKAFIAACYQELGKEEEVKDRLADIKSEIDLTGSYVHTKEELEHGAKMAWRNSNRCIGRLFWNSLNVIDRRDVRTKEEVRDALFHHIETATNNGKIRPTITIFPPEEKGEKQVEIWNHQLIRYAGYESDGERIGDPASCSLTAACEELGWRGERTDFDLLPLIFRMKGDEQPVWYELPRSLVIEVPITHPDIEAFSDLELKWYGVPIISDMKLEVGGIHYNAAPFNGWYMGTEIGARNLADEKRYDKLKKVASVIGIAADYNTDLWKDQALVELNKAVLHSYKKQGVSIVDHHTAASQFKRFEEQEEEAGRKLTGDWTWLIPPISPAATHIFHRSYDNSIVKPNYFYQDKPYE

Question: For `CNCCN(C)c1cccc(CCc2cc(C)cc(N)n2)c1` [Compound 10a, N^1-(3-(2-(6-Amino-4-methylpyridin-2-yl)ethyl)phenyl)-N^1,N^2-dimethylethane-1,2-diamine], which Ki ([1]; Table 9, read-out: Ki Rat nNOS) is on record?
Answer: 0.13 ± 0.01 µM

Question: What about the Ki [2] of the same compound?
Answer: 0.098 ± 0.005 µM

Question: And the Ki ([3]; Table 9, read-out: Ki iNOS)?
Answer: 5.34 µM

Question: And the i/n selectivity ([3]; Table 9)?
Answer: 41

Question: And the Ki ([4]; Table 9, read-out: Ki eNOS)?
Answer: 20.2 µM

Question: And the e/n selectivity ([4]; Table 9)?
Answer: 156

Question: What does the source list for `Cc1cc(N)nc(CCc2cccc(NCCN(C)C)c2)c1` [Compound 10b, N^1-(3-(2-(6-Amino-4-methylpyridin-2-yl)ethyl)phenyl)-N^2,N^2-dimethylethane-1,2-diamine]?
Answer: Ki ([1]; Table 9, read-out: Ki Rat nNOS): 0.19 ± 0.012 µM; Ki [2]: 0.111 ± 0.009 µM; Ki ([3]; Table 9, read-out: Ki iNOS): 5.43 µM; i/n selectivity ([3]; Table 9): 29; Ki ([4]; Table 9, read-out: Ki eNOS): 23.7 µM; e/n selectivity ([4]; Table 9): 125

Question: With `Cc1cc(N)nc(CCc2cccc(N(C)CCN)c2)c1` [Compound 10c, N^1-(3-(2-(6-Amino-4-methylpyridin-2-yl)ethyl)phenyl)-N^1-methylethane-1,2-diamine] as the compound, how does the Ki ([1]; Table 9, read-out: Ki Rat nNOS) read?
Answer: 0.062 ± 0.0041 µM

Question: What about the Ki [2] of the same compound?
Answer: 0.056 ± 0.002 µM

Question: What about the Ki ([3]; Table 9, read-out: Ki iNOS) of the same compound?
Answer: 2.9 µM

Question: And the i/n selectivity ([3]; Table 9)?
Answer: 47

Question: What about the Ki ([4]; Table 9, read-out: Ki eNOS) of the same compound?
Answer: 10.7 µM

Question: And the e/n selectivity ([4]; Table 9)?
Answer: 172

Question: Which Ki ([1]; Table 9, read-out: Ki Rat nNOS) does the source give for `Cc1cc(N)nc(CCc2cccc(N(C)CCCN)c2)c1` [Compound 10d, N^1-(3-(2-(6-Amino-4-methylpyridin-2-yl)ethyl)phenyl)-N^1-methylpropane-1,3-diamine] here?
Answer: 0.43 ± 0.022 µM

Question: What about the Ki [2] of the same compound?
Answer: 0.109 ± 0.003 µM

Question: What about the Ki ([3]; Table 9, read-out: Ki iNOS) of the same compound?
Answer: 4.64 µM

Question: And the i/n selectivity ([3]; Table 9)?
Answer: 11

Question: What about the Ki ([4]; Table 9, read-out: Ki eNOS) of the same compound?
Answer: 10.7 µM

Question: And the e/n selectivity ([4]; Table 9)?
Answer: 25

Question: Which results are given for `CNCCN(C)c1cncc(CCc2cc(C)cc(N)n2)c1` [Compound 14b, N^1-(5-(2-(6-Amino-4-methylpyridin-2-yl)ethyl)pyridin-3-yl)-N^1,N^2-dimethylethane-1,2-diamine]?
Answer: Ki [2]: 0.059 ± 0.0032 µM; Ki ([4]; Table 9, read-out: Ki eNOS): 12.9 µM

Question: Which results are given for `Nc1ccc2ccc(CCNCCCc3cccc(F)c3)cc2n1` [Compound 19]?
Answer: Kd ([5]; KS (bsNOS), Table 5): 3.6 ± 0.8 µM; Kd [5, 11]: 3.6 ± 0.8 µM; effect of co-treatment with H2O2 on killing of S. aureus [6]: significantly increases the H2O2-mediated killing; S. aureus survival, inhibitor alone [6]: reduced bacterial survival over time

Question: With `CNCCN(C)c1cc(CCc2cc(C)cc(N)n2)cc(C(F)(F)F)c1` [Compound 19a, N^1-(3-(2-(6-Amino-4-methylpyridin-2-yl)ethyl)-5-(trifluoromethyl)phenyl)-N^1,N^2-dimethylethane-1,2-diamine] as the compound, how does the Ki ([1]; Table 9, read-out: Ki Rat nNOS) read?
Answer: 0.067 ± 0.0033 µM

Question: What about the Ki [2] of the same compound?
Answer: 0.189 ± 0.016 µM

Question: And the Ki ([3]; Table 9, read-out: Ki iNOS)?
Answer: 8.13 µM

Question: And the i/n selectivity ([3]; Table 9)?
Answer: 122

Question: What about the Ki ([4]; Table 9, read-out: Ki eNOS) of the same compound?
Answer: 15.9 µM

Question: What about the e/n selectivity ([4]; Table 9) of the same compound?
Answer: 238

Question: Which Ki ([1]; Table 9, read-out: Ki Rat nNOS) does the source give for `CNCCN(C)c1cc(F)cc(CCc2cc(C)cc(N)n2)c1` [Compound 19b, N^1-(3-(2-(6-Amino-4-methylpyridin-2-yl)ethyl)-5-fluorophenyl)-N^1,N^2-dimethylethane-1,2-diamine] here?
Answer: 0.034 ± 0.0012 µM

Question: And the Ki [2]?
Answer: 0.105 ± 0.0081 µM

Question: And the Ki ([3]; Table 9, read-out: Ki iNOS)?
Answer: 5.56 µM

Question: And the Ki ([4]; Table 9, read-out: Ki eNOS)?
Answer: 30.2 µM

Question: For `Cc1cc(N)nc(CCc2cc(C#N)cc(NCc3cccc(F)c3)c2)c1` [Compound 23, 3-(2-(6-Amino-4-methylpyridin-2-yl)ethyl)-5-((3-fluorobenzyl)amino)benzonitrile], which Kd ([5]; KS (bsNOS), Table 5) is on record?
Answer: 9.6 ± 1.3 µM

Question: Which Kd ([5]; KS (bsNOS), Table 5) does the source give for `Cc1cc(N)nc(CCc2cc(F)cc(NCc3ccc(F)cc3)c2)c1` [Compound 24, 6-(3-Fluoro-5-((4-fluorobenzyl)amino)phenethyl)-4-methylpyridin-2-amine] here?
Answer: 29 ± 4 µM

Question: For `Cc1cc(N)nc(CCc2cc(F)cc(NCc3cccc(F)c3)c2)c1` [Compound 25, 6-(3-Fluoro-5-((3-fluorobenzyl)amino)phenethyl)-4-methylpyridin-2-amine], which Kd ([5]; KS (bsNOS), Table 5) is on record?
Answer: 19 ± 5 µM

Question: Which Kd ([5]; KS (bsNOS), Table 5) does the source give for `CNCCN(C)Cc1ccc(-c2cc(C)cc(N)n2)cc1` [Compound 26, N1-(4-(6-amino-4-methylpyridin-2-yl)benzyl)-N1,N2-dimethylethane-1,2-diamine] here?
Answer: 6.3 ± 0.3 µM

Question: What does the source list for `Cc1cc(N)nc(-c2ccc(CNCCc3cccc(F)c3)cc2)c1` [Compound 27, 6-(4-(((3-Fluorophenethyl)amino)methyl)phenyl)-4-methylpyridin-2-amine]?
Answer: Kd ([5]; KS (bsNOS), Table 5): 8.9 ± 2 µM; Kd [5, 11]: 8.8 ± 2 µM; Ki [1]: 0.525 µM; Ki [3]: 6.44 µM; Ki [4]: 2.87 µM; effect of co-treatment with H2O2 on killing of S. aureus [6]: significantly increases the H2O2-mediated killing; S. aureus survival, inhibitor alone [6]: reduced bacterial survival over time

Question: With `Cc1cc(N)nc(-c2ccc(CNCCCc3cccc(Cl)c3)cc2)c1` [Compound 28, 6-(4-(((3-(3-Chlorophenyl)propyl)amino)methyl)phenyl)-4-methylpyridin-2-amine] as the compound, how does the Kd ([5]; KS (bsNOS), Table 5) read?
Answer: 3.2 ± 0.1 µM

Question: For `Cc1cc(N)nc(-c2ccc(CNCc3cccc(F)c3)cc2)c1` [Compound 29, 6-(4-(((3-Fluorobenzyl)amino)methyl)phenyl)-4-methylpyridin-2-amine], which Kd ([5]; KS (bsNOS), Table 5) is on record?
Answer: 1.5 ± 0.3 µM

Question: For `CNCCN(C)c1cccc(Cc2cc(C)cc(N)n2)n1` [Compound 31], which Kd ([5]; KS (bsNOS), Table 5) is on record?
Answer: 94 ± 22 µM

Question: With `CNCCN(C)Cc1cccc(Cc2cc(C)cc(N)n2)c1` [Compound 32] as the compound, how does the Kd ([5]; KS (bsNOS), Table 5) read?
Answer: 1.6 ± 0.6 µM

Question: What does the source list for `N=C(N)NCCC[C@H](N)C(=O)O` [L-Arg, L-arginine]?
Answer: Kd ([5]; KS bsNOS, imidazole displacement, Tables 1 and 4): 0.76 µM; Kd ([7]; read-out: WT − KS, wild-type bsNOS, referenced value (25)): 4.8 µM; Kd [8]: 1 µM; Kd [9]: 0.72 µM

Question: For `N=C(NCCC[C@H](N)C(=O)O)N[N+](=O)[O-]` [L-NNA, N^ω-nitro-L-arginine, reference compound], which “effect on bacterial % survival in the presence of ACR” value [10, 12] is on record?
Answer: bacterial % survival decreased

Question: What about the “effect on bacterial % survival in the presence of H2O2” value [10, 12] of the same compound?
Answer: trivial effects on bacterial survival

Question: Which “fold difference in KS binding to bsNOS in presence vs absence of H4B” value ([5]; 50 μM H4B) does the source give for `NC(=NCCC[C@H](N)C(=O)O)NO` [NOHA, N-omega-hydroxy-L-arginine, reference compound] here?
Answer: 1.2 fold

Question: And the Kd ([5]; presence of 50 μM H4B, read-out: KS bsNOS (+H4B))?
Answer: 1.9 ± 0.1 µM

Question: What about the Kd ([7]; absence of H4B, referenced values (8), (9), read-out: KS bsNOS (−H4B)) of the same compound?
Answer: 3.2 µM

Question: Which “bacterial growth, % of control” value ([10]; B. subtilis, agent alone (800 μM ACR or 500 μM NOS inhibitor)) does the source give for acriflavine here?
Answer: 23 % of control
